Test results taken from US20200339691A1, “PROTEINACEOUS MOLECULES AND USES THEREFOR” (priority 2018, published 2020).
Where a SMILES comes first, the peptide text is derived from it. The star is where a group is joined. Myristoyl = CCCCCCCCCCCCCC(=O)*

Tests used:
[1] = tested on: CD44^hiCD24^lo CSCs in MDA-MB-231 cells; experiment: FACS analysis of CD44^hiCD24^lo cancer stem cells in MDA-MB-231 cells treated with P1 analogues; type: cell-based, human; settings: 50 μM peptide, 48 hours; for CD44^hiCD24^lo CSCs (%) / COI, Live Single CD44^hiCD24^lo CSCs (Cell Count): n = 1; for Average Inhibition of CSCs (%) / CD44^hiCD24^lo CSCs (%) Repeat 1 / CD44^hiCD24^lo CSCs (%) Repeat 2 / CD44^hiCD24^lo CSCs (%) Repeat 3: n = 3
Protocol: Analogues of P1 (Table 6) were designed and synthesized in accordance with the procedure of Example 5. The ability of these analogues to inhibit cancer stem cells was determined using FACS analysis on MDA-MB-231 cells, which constitutively contain approximately 90% CD44^hiCD24^lo cancer stem cells, treated with the peptides.
(§1) Non-adherent cells were removed during the washing steps.

[2] = tested on: MDA-MB-231 cells; type: cell-based, human; settings: 50 μM peptide, 48 hours, n = 1;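 as to COI, Live Single Cells (Cell Count): live means Hoechst-negative events among single cells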
Excerpt: as §1

SMILES	Inhibition of CSCs (%) Repeat 1 [1] [%]	Inhibition of CSCs (%) Repeat 2 [1] [%]	Inhibition of CSCs (%) Repeat 3 [1] [%]	CD44^hiCD24^lo CSCs (%) [1] [%]	COI, Live Single CD44^hiCD24^lo CSCs (Cell Count) [1]	Average Inhibition of CSCs (%) [1] [%]	CD44^hiCD24^lo CSCs (%) Repeat 1 [1] [%]	CD44^hiCD24^lo CSCs (%) Repeat 2 [1] [%]	CD44^hiCD24^lo CSCs (%) Repeat 3 [1] [%]	COI (Cell Count) [2]	COI, Live Single Cells (Cell Count) [2]	COI, Single (Cell Count) [2]	Total Cell Count [2]
CCCCCCCCCCCCCC(=O)N[C@@H](C)C(=O)N[C@@H](Cc1ccccc1)C(=O)N[C@H](C(=O)N[C@@H](Cc1ccccc1)C(=O)N[C@@H](CCCNC(=N)N)C(=O)N[C@@H](CC(C)C)C(=O)N[C@@H](CCCNC(=N)N)C(=O)N[C@@H](CCCCN)C(=O)NCC(=O)N[C@@H](CCCNC(=N)N)C(=O)N[C@@H](CCSC)C(=O)N[C@@H](CCSC)C(=O)N[C@@H](CC(=O)O)C(=O)N[C@H](C(=O)N[C@@H](CCCCN)C(=O)N[C@@H](CCCCN)C(N)=O)C(C)C)[C@@H](C)CC [Peptide 2815302, Myristoyl-AFIFRLRKGRMMDVKK-NH2] (Myristoyl-AFIFRLRKGRMMDVKK-NH2)	89.69	91.79	94.73	19.63	86	92.07	9.24	7.36	4.73	516	438	466	5074
CCCCCCCCCCCCCC(=O)N[C@H](C(=O)N[C@@H](C)C(=O)N[C@H](C(=O)N[C@@H](Cc1ccccc1)C(=O)N[C@@H](CCCNC(=N)N)C(=O)N[C@@H](CC(C)C)C(=O)N[C@@H](CCCNC(=N)N)C(=O)N[C@@H](CCCCN)C(=O)NCC(=O)N[C@@H](CCCNC(=N)N)C(=O)N[C@@H](CCSC)C(=O)N[C@@H](CCSC)C(=O)N[C@@H](CC(=O)O)C(=O)N[C@H](C(=O)N[C@@H](CCCCN)C(=O)N[C@@H](CCCCN)C(N)=O)C(C)C)[C@@H](C)CC)[C@@H](C)O [Peptide 2815303, Myristoyl-TAIFRLRKGRMMDVKK-NH2] (Myristoyl-TAIFRLRKGRMMDVKK-NH2)	76.31	81.14	80.95	25.00	2	79.47	21.23	16.92	17.09	18	8	17	10195
CCCCCCCCCCCCCC(=O)N[C@H](C(=O)N[C@@H](Cc1ccccc1)C(=O)N[C@@H](C)C(=O)N[C@@H](Cc1ccccc1)C(=O)N[C@@H](CCCNC(=N)N)C(=O)N[C@@H](CC(C)C)C(=O)N[C@@H](CCCNC(=N)N)C(=O)N[C@@H](CCCCN)C(=O)NCC(=O)N[C@@H](CCCNC(=N)N)C(=O)N[C@@H](CCSC)C(=O)N[C@@H](CCSC)C(=O)N[C@@H](CC(=O)O)C(=O)N[C@H](C(=O)N[C@@H](CCCCN)C(=O)N[C@@H](CCCCN)C(N)=O)C(C)C)[C@@H](C)O [Peptide 2815304, Myristoyl-TFAFRLRKGRMMDVKK-NH2] (Myristoyl-TFAFRLRKGRMMDVKK-NH2)	43.62	47.79	51.20	68.03	83	47.54	50.53	46.84	43.79	157	122	137	4317
CCCCCCCCCCCCCC(=O)N[C@H](C(=O)N[C@@H](Cc1ccccc1)C(=O)N[C@H](C(=O)N[C@@H](C)C(=O)N[C@@H](CCCNC(=N)N)C(=O)N[C@@H](CC(C)C)C(=O)N[C@@H](CCCNC(=N)N)C(=O)N[C@@H](CCCCN)C(=O)NCC(=O)N[C@@H](CCCNC(=N)N)C(=O)N[C@@H](CCSC)C(=O)N[C@@H](CCSC)C(=O)N[C@@H](CC(=O)O)C(=O)N[C@H](C(=O)N[C@@H](CCCCN)C(=O)N[C@@H](CCCCN)C(N)=O)C(C)C)[C@@H](C)CC)[C@@H](C)O [Peptide 2815305, Myristoyl-TFIARLRKGRMMDVKK-NH2] (Myristoyl-TFIARLRKGRMMDVKK-NH2)	7.19	10.83	2.94	93.18	82	6.99	83.18	80.00	87.10	129	88	121	2870
CCCCCCCCCCCCCC(=O)N[C@H](C(=O)N[C@@H](Cc1ccccc1)C(=O)N[C@H](C(=O)N[C@@H](Cc1ccccc1)C(=O)N[C@@H](C)C(=O)N[C@@H](CC(C)C)C(=O)N[C@@H](CCCNC(=N)N)C(=O)N[C@@H](CCCCN)C(=O)NCC(=O)N[C@@H](CCCNC(=N)N)C(=O)N[C@@H](CCSC)C(=O)N[C@@H](CCSC)C(=O)N[C@@H](CC(=O)O)C(=O)N[C@H](C(=O)N[C@@H](CCCCN)C(=O)N[C@@H](CCCCN)C(N)=O)C(C)C)[C@@H](C)CC)[C@@H](C)O [Peptide 2815306, Myristoyl-TFIFALRKGRMMDVKK-NH2] (Myristoyl-TFIFALRKGRMMDVKK-NH2)	67.33	69.17	70.79	27.73	66	69.09	29.28	27.66	26.21	323	238	280	9352
CCCCCCCCCCCCCC(=O)N[C@H](C(=O)N[C@@H](Cc1ccccc1)C(=O)N[C@H](C(=O)N[C@@H](Cc1ccccc1)C(=O)N[C@@H](CCCNC(=N)N)C(=O)N[C@@H](C)C(=O)N[C@@H](CCCNC(=N)N)C(=O)N[C@@H](CCCCN)C(=O)NCC(=O)N[C@@H](CCCNC(=N)N)C(=O)N[C@@H](CCSC)C(=O)N[C@@H](CCSC)C(=O)N[C@@H](CC(=O)O)C(=O)N[C@H](C(=O)N[C@@H](CCCCN)C(=O)N[C@@H](CCCCN)C(N)=O)C(C)C)[C@@H](C)CC)[C@@H](C)O [Peptide 2815307, Myristoyl-TFIFRARKGRMMDVKK-NH2] (Myristoyl-TFIFRARKGRMMDVKK-NH2)	24.79	25.54	36.94	62.77	86	29.09	67.40	66.80	56.59	182	137	164	10681
